Converted amounts (≈) assume the structure as drawn. Where two headings read alike, the source gives them in different places.
What was measured:
A. baumannii DSM 30007 = test: Antimicrobial microtiter plate MIC assay, A. baumannii; type: cell-based, Acinetobacter baumannii; conditions: Mueller Hinton broth, 16–18 h at 37 °C
Description: (§1) The fungus Candida albicans was used as a non-bacterial reference organism. The broad-spectrum antibiotic Ciprofloxacin was used as a reference drug.
(§2) Compounds were tested in a microtiter plate assay according to CLSI guidelines against E. coli DSM 30083, A. baumannii DSM 30007, P. aeruginosa DSM 50071, B. subtilis DSM 402, S. aureus DSM 20231, S. aureus ATCC 43300 (MRSA), and C. albicans, as described previously. E. coli, A. baumannii, S. aureus, and B. subtilis were grown in Mueller Hinton broth, P. aeruginosa in cation-adjusted Mueller Hinton II, and C. albicans DSM1386 in Sabouraud broth. Compounds were dissolved in DMSO at 10 mg/mL. Starting from a 10 mg/mL stock solution, serial dilutions in culture media were prepared with the Tecan Freedom Evo 75 liquid handling workstation (Tecan, Männedorf, Switzerland), covering a range from 512 to 0.5 µg/mL. Assay volumes were 200 µL per well. After inoculating with 5 × 10^5 bacteria/mL from late exponential cultures grown in the same media, cultures were incubated for 16–18 h at 37 °C. The lowest compound concentration inhibiting visible bacterial growth was recorded as MIC.

B. subtilis 168 = test: Antimicrobial microtiter plate MIC assay, B. subtilis; type: cell-based, Bacillus subtilis; conditions: Gram-positive, B. subtilis 168 (DSM 402), Mueller Hinton broth, 16–18 h at 37 °C
Description: as §1, §2

P. aeruginosa DSM 50071 = test: Antimicrobial microtiter plate MIC assay, P. aeruginosa; type: cell-based, Pseudomonas aeruginosa; conditions: cation-adjusted Mueller Hinton II, 16–18 h at 37 °C
Description: as §1, §2

S. aureus DSM 20231 = test: Antimicrobial microtiter plate MIC assay, S. aureus DSM 20231; type: cell-based, Staphylococcus aureus; conditions: Mueller Hinton broth, 16–18 h at 37 °C
Description: as §1, §2

[1] = test system: S. aureus ATCC 43300 (MRSA); test: Antimicrobial microtiter plate MIC assay, S. aureus ATCC 43300 (MRSA); type: cell-based, Staphylococcus aureus; conditions: Gram-positive, Mueller Hinton broth, 16–18 h at 37 °C
Description: as §1, §2

C. albicans DSM 1386 = test: Antimicrobial microtiter plate MIC assay, C. albicans; type: cell-based, Candida albicans; conditions: Sabouraud broth
Description: as §1
E. coli, A. baumannii, S. aureus, and B. subtilis were grown in Mueller Hinton broth, P. aeruginosa in cation-adjusted Mueller Hinton II, and C. albicans DSM1386 in Sabouraud broth. Compounds were dissolved in DMSO at 10 mg/mL. […] Assay volumes were 200 µL per well. After inoculating with 5 × 10^5 bacteria/mL from late exponential cultures grown in the same media, cultures were incubated for 16–18 h at 37 °C. The lowest compound concentration inhibiting visible bacterial growth was recorded as MIC.

E. coli DSM 30083 = test: Antimicrobial microtiter plate MIC assay, E. coli; type: cell-based, Escherichia coli; conditions: Mueller Hinton broth, 16–18 h at 37 °C
Description: as §1, §2

E. coli TrxR = molecular target: T1, E. coli TrxR (Escherichia coli, UniProt P0A9P4); test: Inhibition of bacterial TrxR (E. coli), 5,5-dithiobis-(2-nitrobenzoic acid) reduction assay; type: biochemical
T1 construct: purchased Merck (Darmstadt, Germany)
Description: The inhibition of TrxR has been considered as a novel mode of action for antibiotics and in our previous report, the relevance for gold NHC complexes had been shown.
The TrxR (E. coli) inhibition assay was performed according to a previously published procedure. It is partly based on the procedure developed by Lu et al. and detects the formation of 5-TNB (5-thionitrobenzoic acid). Solutions of E. coli TrxR (35.4 U/mL) and of its substrate thioredoxin (Trx) E. coli (156 µg/mL) (both purchased from Merck (Darmstadt, Germany) and diluted with distilled water) and fresh stock solutions of the test compounds (in DMF) were prepared. TE buffer (Tris-HCl 50 mM, EDTA 1 mM, pH 7.5) containing graded concentrations of the respective compounds (20 µL) or buffer without compounds (20 µL, as control) were mixed with TrxR solution (10 µL), Trx solution (10 µL), and a solution of NADPH (200 µM) in TE buffer (100 µL) in a well on a 96-well plate. As blank solution, 200 µM NADPH in TE buffer (100 µL) mixed with a DMF/buffer mixture (40 µL) was used (final concentrations of DMF: 0.5% v/v). The solutions on the 96-well plates were incubated for 75 min at 25 °C with moderate shaking. […] The highest test compound concentration was used and the enzyme solution was replaced by TE buffer for this purpose.

[2] = purified E. coli TrxR, DTNB reduction, 75 min preincubation at 25 °C, mean (±SD) of three experiments, read-out: IC50 inhibition of E. coli TrxR
[3] = Acinetobacter baumannii, DSM30007, Gram-negative
[4] = Pseudomonas aeruginosa, DSM50071, Gram-negative
[5] = Staphylococcus aureus, DSM20231, Gram-positive
[6] = Candida albicans, DSM1386, fungus
[7] = Escherichia coli, DSM30083, Gram-negative

T1 sequence (P0A9P4 whole entry): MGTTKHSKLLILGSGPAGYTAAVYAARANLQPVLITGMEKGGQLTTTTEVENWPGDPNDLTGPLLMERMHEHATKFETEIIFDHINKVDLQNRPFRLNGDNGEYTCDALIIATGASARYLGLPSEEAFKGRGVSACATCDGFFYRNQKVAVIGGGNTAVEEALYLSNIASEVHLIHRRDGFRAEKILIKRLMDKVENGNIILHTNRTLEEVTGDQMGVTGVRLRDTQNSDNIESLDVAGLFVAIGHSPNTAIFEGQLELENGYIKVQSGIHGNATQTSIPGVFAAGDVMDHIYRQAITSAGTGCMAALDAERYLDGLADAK

| Compound | MIC (A. baumannii DSM 30007; Gram-negative) [µM] | MIC (B. subtilis 168) [µM] | MIC (P. aeruginosa DSM 50071; Gram-negative) [µM] | MIC (S. aureus DSM 20231; Gram-positive) [µM] | MIC [1] [µM] | MIC (C. albicans DSM 1386; fungus) [µM] | MIC (E. coli DSM 30083; Gram-negative) [µM] | IC50 (E. coli TrxR; [2]) [µM] | MIC (A. baumannii DSM 30007; [3]) [µM] | MIC (B. subtilis 168; Bacillus subtilis, DSM402) [µM] | MIC (P. aeruginosa DSM 50071; [4]) [µM] | MIC (S. aureus DSM 20231; [5]) [µM] | MIC ([1]; Staphylococcus aureus) [µM] | MIC (C. albicans DSM 1386; [6]) [µM] | MIC (E. coli DSM 30083; [7]) [µM] | IC50 (E. coli TrxR) [µM] |
| --- | --- | --- | --- | --- | --- | --- | --- | --- | --- | --- | --- | --- | --- | --- | --- | --- |
| 1,3-Dibenzyl-5-chloro-1H-benzimidazolium bromide [2e] | 1242.6 | 155.3 | 1242.6 | 77.7 | 77.7 | 1242.6 | 1242.6 | – | – | – | – | – | – | – | – | – |
| 1,3-Dibenzyl-5-fluoro-1H-benzimidazolium bromide [2d] | >1288.7 | 322.2 | >1288.7 | 161.1 | 161.1 | >1288.7 | 1288.7 | – | – | – | – | – | – | – | – | – |
| 1,3-Dibenzyl-5-methoxy-1H-benzimidazolium bromide [2c] | 1250.8 | 78.2 | 1250.8 | 19.5 | 19.5 | 1250.8 | 1250.8 | – | – | – | – | – | – | – | – | – |
| c1ccc(Cn2c[n+](Cc3ccccc3)c3ccccc32)cc1 [2a] | – | – | – | – | – | – | – | > 100 | 1350 | 169 | 1350 | 42.2 | 42.2 | 1350 | 1350 | – |
| Cc1ccc2c(c1)n(Cc1ccccc1)c[n+]2Cc1ccccc1 [2b, 1,3-Dibenzyl-5-methyl-1H-benzimidazolium bromide] | – | – | – | – | – | – | – | – | 1300 | 651 | 1300 | 81.4 | 163 | 1300 | 1300 | > 100 |
| Brc1ccc2c(c1)n(Cc1ccccc1)c[n+]2Cc1ccccc1 [2f, 1,3-Dibenzyl-5-bromo-1H-benzimidazolium bromide] | – | – | – | – | – | – | – | – | > 1120 | 279 | > 1120 | 140 | 69.8 | > 1120 | > 1120 | > 100 |
| Cc1ccc(C(C)C)cc1.Cc1ccc2c(c1)n(Cc1ccccc1)[c](=[Ru]([Cl])[Cl])n2Cc1ccccc1 [3b, (1,3-Dibenzyl-5-methyl-1H-benzimidazol-2-ylidene)-dichlorido-(η^6-p-cymene)ruthenium(II)] | 413.8 | 25.9 | 413.8 | 25.9 | 25.9 | >827.7 | 827.7 | 14 | – | – | – | – | – | – | – | – |
| COc1ccc2c(c1)n(Cc1ccccc1)[c](=[Ru]([Cl])[Cl])n2Cc1ccccc1.Cc1ccc(C(C)C)cc1 [3c, (1,3-Dibenzyl-5-methoxy-1H-benzimidazol-2-ylidene)-dichlorido-(η^6-p-cymene)ruthenium(II)] | >806.8 | 25.2 | >806.8 | 25.2 | 25.2 | >806.8 | >806.8 | – | – | – | – | – | – | – | – | – |
| Cc1ccc(C(C)C)cc1.Fc1ccc2c(c1)n(Cc1ccccc1)[c](=[Ru]([Cl])[Cl])n2Cc1ccccc1 [3d, (1,3-Dibenzyl-5-fluoro-1H-benzimidazol-2-ylidene)-dichlorido-(η^6-p-cymene)ruthenium(II)] | 205.6 | 25.7 | >822.4 | 25.7 | 25.7 | >822.4 | 822.4 | – | – | – | – | – | – | – | – | – |
| Cc1ccc(C(C)C)cc1.Clc1ccc2c(c1)n(Cc1ccccc1)[c](=[Ru]([Cl])[Cl])n2Cc1ccccc1 [3e, (1,3-Dibenzyl-5-chloro-1H-benzimidazol-2-ylidene)-dichlorido-(η^6-p-cymene)ruthenium(II)] | >802.4 | 25.1 | >802.4 | 25.1 | 12.5 | >802.4 | 401.2 | – | – | – | – | – | – | – | – | – |
| Cc1ccc(C(C)C)cc1.[Cl][Ru]([Cl])=[c]1n(Cc2ccccc2)c2ccc(Br)cc2n1Cc1ccccc1 [3f, (1,3-Dibenzyl-5-bromo-1H-benzimidazol-2-ylidene)-dichlorido-(η^6-p-cymene)ruthenium(II)] | >749.1 | 11.7 | >749.1 | 23.4 | 11.7 | >749.1 | 374.6 | > 100 | – | – | – | – | – | – | – | – |
| O=C(O)c1cn(C2CC2)c2cc(N3CCNCC3)c(F)cc2c1=O [Ciprofloxacin, reference compound] | – | – | – | – | – | – | – | – | 24 (≈ 7.95 µg/mL) | 24 (≈ 7.95 µg/mL) | 1.2 (≈ 0.398 µg/mL) | 12 (≈ 3.98 µg/mL) | 12 (≈ 3.98 µg/mL) | – | 1.5 (≈ 0.497 µg/mL) | – |
